Experiments:
[1] = tested on: BEAS2B lung epithelial cells; test: In vitro cytotoxicity, Cell-Titer Glo viability, BEAS2B; format: cell-based; conditions: 48 hours
HepG2 liver cells = test: In vitro cytotoxicity, Cell-Titer Glo viability, HepG2; format: cell-based; conditions: 48 hours
HEK293 kidney cells = format: cell-based; conditions: 48 hours, Cell-Titer Glo
Swiss Webster mice = test: Rotarod assay of sensorimotor coordination in mice; conditions: for sensorimotor impairment on rotarod: 40 mg/kg i.p., Swiss Webster mice, 10, 30 and 60 min
[2] = In vitro liver microsomal stability; format: in vitro ADME, mouse; conditions: for metabolically converted after one hour: corresponds to mouse liver microsome values of Table 1
[3] = Solubility in rotarod vehicle; conditions: 50% PBS, 40% propylene glycol, 10% DMSO; for 40 mg/kg i.p. dosing
[4] = In vitro liver microsomal stability; format: in vitro ADME; conditions: human, microsomes

| Compound | Toxicity in BEAS 2B (Lung) LD50 [1] | Toxicity in HEPG2 (Liver) LD50 (HepG2 liver cells) | Toxicity in HEK293 (Kidney) LD50 (HEK293 kidney cells) | sensorimotor impairment on rotarod (Swiss Webster mice) | metabolically converted after one hour [2] | loss at 1 h in mouse liver microsomes [2] | solubility in the vehicle [3] | remaining at 1 h [4] | toxicity in HEK293 cells (HEK293 kidney cells) | sensorimotor impairment on rotarod, positive control (Swiss Webster mice; 5 mg/kg i.p., Swiss Webster mice) |
| --- | --- | --- | --- | --- | --- | --- | --- | --- | --- | --- |
| [2H]C([2H])([2H])Oc1ccc2c(c1)C(=O)N1CCC[C@H]1c1c(C(=O)OC(C)(C)C)ncn1-2 [Compound 7a] | >200 µM | >400 µM | >100 µM | – | – | – | – | – | – | – |
| [2H]C([2H])([2H])Oc1ccc2c(c1)C(=O)N1CCC[C@H]1c1c(C(=O)OC)ncn1-2 [Compound 10a] | >400 µM | >400 µM | >400 µM | most severe motor impairment | 15% | less than 20% | – | – | – | – |
| COc1ccc2c(c1)C(=O)N1CCC[C@H]1c1c(C(=O)OCC(C)C)ncn1-2 [Compound 11, (S)-Isobutyl-7-methoxy-9-oxo-11,12,13,13a-tetrahydro-9H-benzo[e]imidazo[5,1-c]pyrrolo[1,2-a][1,4]diazepine-1-carboxylate] | >200 µM | >200 µM | >100 µM | – | – | – | not soluble in the vehicle | < 80% | – | – |
| [2H]C([2H])([2H])Oc1ccc2c(c1)C(=O)N1CCC[C@H]1c1c(C(=O)OC(C(F)(F)F)C(F)(F)F)ncn1-2 [Compound 12a] | >400 µM | >400 µM | >200 µM | – | – | – | not soluble in the vehicle | < 80% | – | – |
| [2H]C([2H])([2H])Oc1ccc2c(c1)C(=O)N1CCC[C@H]1c1c(C(=O)NCC)ncn1-2 [Compound 17a] | – | >400 µM | – | did not induce sensorimotor impairment | – | less than 20% | – | – | – | – |
| [2H]C([2H])([2H])Oc1ccc2c(c1)C(=O)N1CCC[C@H]1c1c(C(=O)OCC(C)C)ncn1-2 [Compound 11a] | >200 µM | >200 µM | >100 µM | most severe motor impairment | – | – | – | < 80% | – | – |
| CC(C)(C)OC(=O)c1ncn2c1[C@@H]1CCCN1C(=O)c1cc(O)ccc1-2 [Compound 8] | >400 µM | >400 µM | – | – | – | – | – | – | – | – |
| [2H]C([2H])([2H])Oc1ccc2c(c1)C(=O)N1CCC[C@H]1c1c(C(=O)NC3CC3)ncn1-2 [Compound 19a] | – | >400 µM | – | – | – | less than 20% | – | – | some toxicity | – |
| [2H]C([2H])([2H])Oc1ccc2c(c1)C(=O)N1CCC[C@H]1c1c(C(=O)O)ncn1-2 [Compound 9a] | >400 µM | >400 µM | >400 µM | did not induce sensorimotor impairment | – | less than 20% | – | – | – | – |
| CN1C(=O)CN=C(c2ccccc2)c2cc(Cl)ccc21 [diazepam, reference compound] | – | – | – | – | – | – | – | – | – | greatest impairment of sensorimotor steadiness at 10 minutes |
| [2H]C([2H])([2H])Oc1ccc2c(c1)C(=O)N1CCC[C@H]1c1c(C(=O)NC)ncn1-2 [Compound 15a] | >400 µM | >400 µM | >100 µM | – | – | – | – | – | – | – |
| [2H]C([2H])([2H])Oc1ccc2c(c1)C(=O)N1CCC[C@H]1c1c(C(=O)NC(C)(C)C)ncn1-2 [Compound 18a] | – | >400 µM | – | most severe motor impairment | – | – | – | – | – | – |
| CCOC(=O)c1ncn2c1[C@@H]1CCCN1C(=O)c1cc(O)ccc1-2 [Compound 6] | >400 µM | >400 µM | – | did not induce sensorimotor impairment | – | less than 20% | – | – | – | – |
| [2H]C([2H])([2H])Oc1ccc2c(c1)C(=O)N1CCC[C@H]1c1c(C(=O)N(C)C)ncn1-2 [Compound 16a] | >400 µM | >400 µM | >400 µM | did not induce sensorimotor impairment | – | less than 20% | – | – | – | – |
| COc1ccc2c(c1)C(=O)N1CCC[C@H]1c1c(C(=O)NC(C)(C)C)ncn1-2 [Compound 18] | >400 µM | >400 µM | >200 µM | – | – | – | – | – | – | – |
| CNC(=O)c1ncn2c1[C@@H]1CCCN1C(=O)c1cc(OC)ccc1-2 [Compound 15] | >400 µM | >400 µM | >100 µM | most severe motor impairment | – | – | – | – | – | – |
| [2H]C([2H])([2H])Oc1ccc2c(c1)C(=O)N1CCC[C@H]1c1c(C(=O)OCC)ncn1-2 [Compound 5a] | >400 µM | >400 µM | >400 µM | – | – | less than 20% | – | – | – | – |
| COC(=O)c1ncn2c1[C@@H]1CCCN1C(=O)c1cc(OC)ccc1-2 [Compound 10, (S)-Methyl-7-methoxy-9-oxo-11,12,13,13a-tetrahydro-9H-benzo[e]imidazo[5,1-c]pyrrolo[1,2-a][1,4]diazepine-1-carboxylate] | >400 µM | >400 µM | >400 µM | did not induce any sensorimotor impairment | 30% | – | – | – | – | – |
| CCNC(=O)c1ncn2c1[C@@H]1CCCN1C(=O)c1cc(OC)ccc1-2 [Compound 17] | >400 µM | >400 µM | >400 µM | – | – | – | – | – | – | – |
| COc1ccc2c(c1)C(=O)N1CCC[C@H]1c1c(C(=O)NC3CC3)ncn1-2 [Compound 19] | >400 µM | >400 µM | >200 µM | – | – | less than 20% | – | < 80% | some toxicity | – |
